Numbered stars: 1 amine (or outer) side, 2 acyl side, 3 side chain; on linkers, the order of the positions; unused ones are H or OH. Bridge positions count the residues as written; N and C are the ends. Square brackets hold non-standard residues; d marks the D form. Peptide text beside a SMILES is read from it. * marks the point of attachment. hPhe(3-Cl-4-CF3) = N[C@@H](CCc1ccc(C(F)(F)F)c(Cl)c1)C(=O)O; NEtPhe(4-CF3) = CCN[C@@H](Cc1ccc(C(F)(F)F)cc1)C(=O)O; hPhe(4-CF3) = N[C@@H](CCc1ccc(C(F)(F)F)cc1)C(=O)O; 3Oxa8azabicyclo(3.2.1)octane = C1CC2COCC1N2*; NMePhe(4-Cl) = CN[C@@H](Cc1ccc(Cl)cc1)C(=O)O; hPhe(3-Cl) = N[C@@H](CCc1cccc(Cl)c1)C(=O)O; NMedβ3hAla = C[C@H](CC(=O)[*:2])N(C)[*:1]; NMeGly(cPent) = CN[C@H](C(=O)O)C1CCCC1; Pro(4,4-F2) = O=C(O)[C@@H]1CC(F)(F)CN1; NMeGly(cBu) = CN[C@H](C(=O)O)C1CCC1; NMeCha = CN[C@@H](CC1CCCCC1)C(=O)O; NMeAhp(2) = CCCCC[C@H](NC)C(=O)O; NMeChg = CN[C@H](C(=O)O)C1CCCCC1; Gly(cBu) = N[C@H](C(=O)O)C1CCC1; NMeD = CN[C@@H](CC(=O)O)C(=O)O; NMeL = CN[C@@H](CC(C)C)C(=O)O; NMeV = CN[C@H](C(=O)O)C(C)C; d(β3hA) = C[C@@H](N)CC(=O)O; Azetidin(1-yl) = C1CN(*)C1; NMeS = CN[C@@H](CO)C(=O)O; NMeA = CN[C@@H](C)C(=O)O; Piperidide = C1CCN(*)CC1; Ac5c = NC1(C(=O)O)CCCC1; Aze = O=C(O)[C@@H]1CCN1; Ac4c = NC1(C(=O)O)CCC1; Aib = CC(C)(N)C(=O)O; NEtG = CCNCC(=O)O; Sar = CNCC(=O)O; Propyl = CCC*
target: protein-protein interaction between Kras and SOS1 (biotin-tagged human Kras loaded with GDP, His-tagged human SOS1) (Homo sapiens (Human), UniProt P01116, G12D); experiment: Protein-protein interaction inhibition between Kras and SOS1 (KrasG12D-SOS PPI) using AlphaScreen; format: biochemical; settings: AlphaScreen; biotin-tagged human Kras loaded with GDP, His-tagged human SOS1; read-out: KRAS G12D-SOS PPI IC50;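 note: kras produced in E. coli, Ni-coupled donor beads and streptavidin acceptor beads, excitation 680 nm with emission detected at 520–620 nm via singlet oxygen transfer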

Compound	IC50 [nM]
CC[C@H](C)[C@@H]1NC(=O)[C@H](CC(C)C)N(C)C(=O)C[C@@H](C(=O)N2CCCCC2)N(C)C(=O)[C@H](C2CCCC2)N(C)C(=O)C2(CCCC2)NC(=O)[C@@H]2CCCN2C(=O)[C@H](CCc2ccc(C(F)(F)F)c(Cl)c2)NC(=O)CN(C)C(=O)[C@H](C2CCC2)N(C)C(=O)[C@@H]2CCN2C(=O)[C@H](C)N(C)C1=O [Compound 127] ([NMeL]I[NMeA][Aze][NMeGly(cBu)][Sar][hPhe(3-Cl-4-CF3)]P[Ac5c][NMeGly(cPent)][NMeD]-Piperidide; lactam N-11)	0.43
CC[C@H](C)[C@@H]1NC(=O)[C@H](CC(C)C)N(C)C(=O)C[C@@H](C)N(C)C(=O)[C@H](C2CCCCC2)N(C)C(=O)C2(CCC2)NC(=O)[C@@H]2CC(F)(F)CN2C(=O)[C@H](CCc2ccc(C(F)(F)F)c(Cl)c2)NC(=O)CN(C)C(=O)[C@H](Cc2ccc(C(F)(F)F)cc2)N(CC)C(=O)[C@@H]2CCN2C(=O)[C@H](C)NC1=O [Compound 138] (cyclo(A[Aze][NEtPhe(4-CF3)][Sar][hPhe(3-Cl-4-CF3)][Pro(4,4-F2)][Ac4c][NMeChg][NMedβ3hAla][NMeL]I))	44
CC[C@H](C)[C@@H]1NC(=O)[C@H](C)N(C)C(=O)C[C@@H](C)NC(=O)[C@H](CC(C)C)N(C)C(=O)C(C)(C)NC(=O)[C@H](CC(C)C)N(C)C(=O)[C@H](CCc2cccc(Cl)c2)NC(=O)CN(C)C(=O)[C@H](Cc2ccc(Cl)cc2)N(C)C(=O)CN(C)C(=O)CN(C)C1=O [Compound 153] (cyclo([Aib][NMeL][d(β3hA)][NMeA]I[Sar][Sar][NMePhe(4-Cl)][Sar][hPhe(3-Cl)][NMeL]))	60
CCCCC[C@H]1C(=O)N[C@@H]([C@@H](C)CC)C(=O)N[C@@H](C)C(=O)N2CC[C@H]2C(=O)N(C)[C@@H](CC2CCCCC2)C(=O)N(C)CC(=O)N[C@@H](CCc2ccc(C(F)(F)F)c(Cl)c2)C(=O)N2CCC[C@H]2C(=O)NC2(CCCC2)C(=O)N(C)[C@@H](C2CCCC2)C(=O)N(C)[C@H](C(=O)N2CCC2)CC(=O)N1C [Compound 155] ([NMeAhp(2)]IA[Aze][NMeCha][Sar][hPhe(3-Cl-4-CF3)]P[Ac5c][NMeGly(cPent)][NMeD]-{Azetidin(1-yl)}; lactam N-11)	1.6
CC(C)C[C@H]1C(=O)N[C@@H](C2CCC2)C(=O)N(C)[C@@H](C)C(=O)N2CC[C@H]2C(=O)N(C)[C@@H](CC2CCCCC2)C(=O)N(C)CC(=O)N[C@@H](CCc2ccc(C(F)(F)F)c(Cl)c2)C(=O)N2CCC[C@H]2C(=O)NC2(CCCC2)C(=O)N(C)[C@@H](C(C)C)C(=O)N(C)[C@H](C(=O)N2CCCCC2)CC(=O)N1C [Compound 157] ([NMeL][Gly(cBu)][NMeA][Aze][NMeCha][Sar][hPhe(3-Cl-4-CF3)]P[Ac5c][NMeV][NMeD]-Piperidide; lactam N-11)	7.5
CC[C@H](C)[C@@H]1NC(=O)[C@H](CC(C)C)N(C)C(=O)C[C@@H](C(=O)N2CCCCC2)N(C)C(=O)[C@H](C2CCCCC2)N(C)C(=O)C2(CCCC2)NC(=O)CN(CC)C(=O)[C@H](CCc2ccc(C(F)(F)F)c(Cl)c2)NC(=O)CN(C)C(=O)[C@H](CC2CCCCC2)N(C)C(=O)CN(C)C(=O)CN(C)C1=O [Compound 160] ([NMeL]I[Sar][Sar][NMeCha][Sar][hPhe(3-Cl-4-CF3)][NEtG][Ac5c][NMeChg][NMeD]-Piperidide; lactam N-11)	1
CCCCC[C@H]1C(=O)N[C@@H]([C@@H](C)CC)C(=O)N[C@@H](C)C(=O)N2CC[C@H]2C(=O)N(C)[C@@H](COCCC)C(=O)N(C)CC(=O)N[C@@H](CCc2ccc(C(F)(F)F)c(Cl)c2)C(=O)N2CCC[C@H]2C(=O)NC2(CCCC2)C(=O)N(C)[C@@H](C2CCCC2)C(=O)N(C)[C@H](C(=O)N2C3CCC2COC3)CC(=O)N1C [Compound 163] ([NMeAhp(2)]IA[Aze][NMeS](Propyl)[Sar][hPhe(3-Cl-4-CF3)]P[Ac5c][NMeGly(cPent)][NMeD]-{3Oxa8azabicyclo(3.2.1)octane}; lactam N-11)	6.1
CC[C@H](C)[C@@H]1NC(=O)[C@H](C)N(C)C(=O)C[C@@H](C)N(C)C(=O)[C@H](CC(C)C)NC(=O)C(C)(C)NC(=O)[C@H](CC(C)C)NC(=O)[C@H](CCc2ccc(C(F)(F)F)cc2)NC(=O)CN(C)C(=O)[C@H](Cc2ccc(Cl)cc2)N(C)C(=O)CN(C)C(=O)CN(C)C1=O [Compound 170] (cyclo([Aib]L[NMedβ3hAla][NMeA]I[Sar][Sar][NMePhe(4-Cl)][Sar][hPhe(4-CF3)]L))	350
CC[C@H](C)[C@@H]1NC(=O)[C@H](CC(C)C)N(C)C(=O)C[C@@H](C)NC(=O)[C@H](C(C)C)N(C)C(=O)C2(CCCC2)NC(=O)[C@@H]2CCCN2C(=O)[C@H](CCc2ccc(C(F)(F)F)c(Cl)c2)NC(=O)CN(C)C(=O)[C@H](CC2CCCCC2)N(C)C(=O)[C@@H]2CCN2C(=O)[C@@H]2CCN2C1=O [Compound 181] (cyclo([Ac5c][NMeV][d(β3hA)][NMeL]I[Aze][Aze][NMeCha][Sar][hPhe(3-Cl-4-CF3)]P))	130

Source: patent US20240148821A1, “PHARMACEUTICAL USE OF CYCLIC PEPTIDE COMPOUND” (CHUGAI SEIYAKU KABUSHIKI KAISHA, priority 2021, published 2024)
